This passage reports IC50 results from paper PMC6332318, “Synthetic Development of New 3-(4-Arylmethylamino)butyl-5-arylidene-rhodanines under Microwave Irradiation and Their Effects on Tumor Cell Lines and against Protein Kinases” (Molecules, 2015).

pIC50: −log10 of the molar value.

One may read the pIC50 as −log10 of the IC50, conventionally taken in molar units.

For test [1], the system named is panel of seven representative tumoral cell lines. Put plainly: in vitro inhibition of cell proliferation, whole panel. In kind it is cell-based. Particulars: all cell lines of the panel, without selectivity; read-out: IC50, moderate antitumor activities in all cell lines of the panel. The procedure: As an initial effort to investigate their in vitro bioactivity, the new synthesized 3-(4-arylmethylamino)butyl-2-thioxo-1,3-thiazolidine-4-one 9a–n and also their precursors 6a–f were evaluated for their in vitro inhibition of cell proliferation. For this study, we used a panel of seven representative tumoral cell lines, namely HuH7 D12 (differential hepato cellular carcinoma), Caco 2 (differentiating colorectal adenocarcinoma), MDA-MBD231 ([…]), HCT 116 (actively proliferating colorectal adenocarcinoma), PC3 (prostate carcinoma), NCI-H727 (lung carcinoma), HaCat keratinocyte and, diploid skin fibroblasts as normal cell lines for control.
Skin diploid fibroblastic cells were provided by BIOPREDIC International Company (Rennes, France). Caco2 (Ref ECACC: 86010202), Huh-7D12 (Ref ECACC: 01042712), MDA-MB-231 (Ref ECACC: 92020424), HCT-116 (Ref ECACC: 91091005), PC3 (Ref ECACC: 90112714), NCI-H727 (Ref ECACC: 94060303) cell lines were obtained from the ECACC collection and HaCaT (from Cell Lines Service, Eppelheim, Germany). Cells were grown according to ECACC recommendations. […] Cells were fixed in cooled solution of 90% ethanol/5% acetic acid, nuclei were stained with Hoechst 3342 (Sigma) and counted using automated imaging analysis (Cellomics Arrayscan VTI/HCS Reader, Thermo/Scientific, Waltham, MA, USA). The IC50 were graphically determined.

A further test has as its target T1, HsHaspin (Homo sapiens, UniProt Q8TF76).
T1 construct: HsHaspin-kd aa 470 to 798; GST (from vector pGEX-6P-3; tag and N-terminal position are own knowledge of the vector) (N); made in house; host or cells: Escherichia coli BL21-KRX
T1 sequence (Q8TF76 470-798): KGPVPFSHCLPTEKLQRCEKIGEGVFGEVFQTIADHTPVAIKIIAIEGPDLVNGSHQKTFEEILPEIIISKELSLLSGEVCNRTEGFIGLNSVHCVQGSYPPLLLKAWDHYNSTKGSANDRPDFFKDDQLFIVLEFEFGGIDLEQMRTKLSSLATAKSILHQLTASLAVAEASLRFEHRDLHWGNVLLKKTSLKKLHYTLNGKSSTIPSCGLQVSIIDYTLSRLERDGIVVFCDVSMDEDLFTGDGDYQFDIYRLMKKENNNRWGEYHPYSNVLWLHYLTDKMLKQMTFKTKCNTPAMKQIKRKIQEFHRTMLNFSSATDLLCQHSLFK
Description: protein kinase assay, [γ-33P] ATP. In kind it is biochemical. The protocol:
Then, we evaluated the intermediates salts 6a–f and fourteen final compounds 9a–n on four protein kinases: HsCDK5-p25 (cyclin-dependant kinase 5-p25), SsGSK-3α/β (glycogen synthase kinase-3α/β) SsCK1δ/ε (Caseine kinase 1) and HsHaspin as an essential mitotic kinase. […] IC50 values were determined from dose-response curves.
ATP (3000 Ci/mmol; 10 mCi/mL) in a final volume of 30 µL. After 30 min incubation at 30 °C, the reaction was stopped by harvesting, using a FilterMate harvester (Packard, Meriden, CT, USA), onto P81 phosphocellulose papers (GE Healthcare, Velizy-Villacoublay, France) which were washed in 1% phosphoric acid. Scintillation fluid was added and the radioactivity measured in a Packard counter. Blank values were subtracted and activities calculated as pmoles of phosphate incorporated during the 30 min incubation. The activities were expressed in a percentage of the maximal activity, i.e., in the absence of inhibitors. Controls were performed with appropriate dilutions of DMSO. CK1 and Haspin peptide substrates were obtained from Proteogenix (Oberhausbergen, France).
Haspin kinase domain (HsHaspin-kd aa 470 to 798) encoding cDNA, obtain by RT-PCR, was cloned into pGex-6P-3. The fusion protein was expressed in Escherichia coli strain BL21-KRX (Promega, Madison, WI, USA) and purified by affinity chromatography on glutathione-agarose beads (Sigma). Haspin-kd activity was assayed with 3 µM Histone H3 (1-21) peptide, a specific Haspin substrate, ([…]), in Buffer H (MOPS 25 mM pH 7.5; 10 mM MgCl2).

Turning to `O=C1/C(=C/c2ccc3c(c2)OCO3)SC(=S)N1CCCCNCc1ccc2c(c1)OCO2` [Compound 9h, (5Z)3-[4-(1,3-Benzodioxol-5-ylmethylamino)butyl]-5-(1,3-benzodioxol-5-ylmethylene)-2-thioxo-1,3-thiazolidin-4-one], the negative logarithm of the IC50 (pIC50) is 4.77 to 5.00 in test [1] and under 5.00 at HsHaspin.

For `COc1cc(/C=C2\SC(=S)N(CCCCNCc3ccc4c(c3)OCCO4)C2=O)ccc1O` [Compound 9n, (5Z)3-[4-(2,3-Dihydro-benzo[1,4]dioxin-6-ylmethylamino)butyl]-5-(4-hydroxy-3-methoxybenzylidene)-2-thioxo-1,3-thiazolidin-4-one], the negative-log IC50 (pIC50) on HsHaspin is under 5.00.

Compound `O=C1/C(=C/c2ccc(O)cc2)SC(=S)N1CCCCNCc1ccc2c(c1)OCO2` [Compound 9j, (5Z)3-[4-(1,3-Benzodioxol-5-ylmethylamino)butyl]-5-(4-hydroxy-benzylidene)-2-thioxo-1,3-thiazolidin-4-one] showed a negative logarithm of the IC50 (pIC50) against HsHaspin of under 5.00.

Turning to `O=C1/C(=C/c2ccc3c(c2)OCCO3)SC(=S)N1CCCCNCc1ccc2c(c1)OCO2` [Compound 9i, (5Z)3-[4-(1,3-Benzodioxol-5-ylmethylamino)butyl]-5-(2,3-dihydro-1,4-benzodioxin-6-ylmethylene)-2-thioxo-1,3-thiazolidin-4-one], on HsHaspin, the pIC50 was under 5.00.
